According to patent US20150224211A1, “LEUKOCYTES AS DELIVERY CELLS FOR IMAGING AND DISEASE THERAPY” (priority 2012, published 2015):
Entries after “also recorded” stand apart in the source; their conditions may differ.

Experiments:
[1] = tested on: 4T1 mouse mammary carcinoma cells; assay: In situ photodynamic therapy (ALA plus luminol) of mouse mammary tumors; assay type: in vivo; conditions: ALA 100 mg/kg IP prior to luminol 250 mg/kg IP; treatment repeated; four days after PDT
Experimental: 1×10^5 4T1 mouse mammary carcinoma cells (ATCC) were transplanted into a mammary fat pad of a mouse. Four, six, eight and ten days after transplant, luminol (Sigma-Aldrich) was administered intrapertioneally (IP)(250 mg/kg) and the mouse was imaged on an IVIS Lumina imaging apparatus. For in situ photodynamic therapy, the sensitizer alpha aminolevulinic acid (ALA), which is a precursor to protoporphyrin IX (a clinically used photosensitizer), was administered IP (100 mg/kg,) prior to luminol administration. […] Adjunct treatments designed to enhance the PDT effect included the administration of the TGF-β inhibitor LY34947 (1 mg/kg, IP), streptokinase (800 units/mouse, IV), or a combination of LY34947 and streptokinase.

[2] = tested on: Fusobacterium necrophorum subsp. necrophorum strain 8L1; assay: Efficacy study in mouse model of liver abscesses; assay type: in vivo, BALB/c mice; conditions: 60 μg CHX in 1.3×10^6 neutrophils
Experimental: In an efficacy study that followed, Fusobacterium necrophorum subsp. necrophorum strain 8L1 was grown overnight from a single colony in PRAS-BHI. 0.3 ml of the starter culture was added to 10 ml of fresh PRAS-BHI broth and grown to an O.D.600 of 0.7. 1 ml of this culture was diluted 1:40 to achieve a final concentration of approximately 4·10^6 CFU/ml. 400 μl of the diluted bacteria was injected intraperitonially into 10 week old BALB/c mice.
Ten-week old BALB/c mice were randomly assigned into 6 groups with 9 mice per group. On day zero, all mice were infected intraperitonially with an infectious dose (approximately 1×10^7 CFU) of F. necrophorum. On day 3, mice were injected (via tail vein) with 100 μl PBS (control), unmodified neutrophils, neutrophils carrying microparticles (an average of 20 cells of M. luteus loaded with chlorhexidine), or neutrophils containing unmodified, heat deactivated M. luteus. The animals were monitored for clinical signs for 5 days after treatment and were euthanized if any clinical signs developed. The mice were euthanized 5 days post treatment and all mice were examined post mortem for abscesses in the livers. Livers of the mice were weighed and homogenized in a tissue homogenizer for 1 min in modified lactate (ML) broth. […]

| SMILES | tumor response determined by imaging with luciferin [1] | effect against the hepatic disease caused by F. necrophorum [2] |
| --- | --- | --- |
| NCC(=O)CCC(=O)O [ALA, 5-aminolevulinic acid] | can attenuate tumors; also recorded: dramatic regression of the tumors | – |
| [H]/N=C(\N/C(=N/[H])NCCCCCCNC(=N)NC(=N)Nc1ccc(Cl)cc1)Nc1ccc(Cl)cc1 [CHX, chlorhexidine gluconate] | – | effective |
